{"source": "patent US20130231307A1", "about": "“NOVEL ANTIVIRAL ACYCLIC NUCLEOSIDE PHOSPHONATES” (CENTRE NATIONAL DE LA RECHERCHE SCIENTIFIQUE, priority 2010, published 2013)", "key": {"DNA viruses": {"system": "DNA viruses", "assay_type": "cell-based"}, "[1]": {"system": "thymidine kinase-deficient VZV strain 07/1"}, "[2]": {"system": "HSV-1 TK^− (KOS acyclovir resistant, ACV)"}, "[3]": {"system": "herpes simplex virus type 1 (HSV-1) (KOS)"}, "[4]": {"settings": "in vivo; cited from earlier work"}, "UMP-CMP kinase (hUCK)": {"biological_target": "T1, UMP-CMP kinase (hUCK) (Homo sapiens, UniProt P30085)", "T1 sequence (P30085 1-196)": "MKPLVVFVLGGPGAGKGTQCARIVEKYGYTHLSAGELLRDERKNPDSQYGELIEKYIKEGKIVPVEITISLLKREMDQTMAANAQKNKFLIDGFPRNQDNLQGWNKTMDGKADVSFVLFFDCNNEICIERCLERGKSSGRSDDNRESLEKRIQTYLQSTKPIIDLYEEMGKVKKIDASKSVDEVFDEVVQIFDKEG", "settings": "cited from earlier work"}}, "note": "Like-named read-outs stand apart in the source and are kept apart here.", "data": [{"molecule": "CC(C)(C)C(=O)OCOP(=O)(C/C=C\\Cn1ccc(=O)[nH]c1=O)OCOC(=O)C(C)(C)C", "note": "[Ia2]", "values": [{"measurement": "antiviral activity, [Z] versus corresponding [E] isomers", "setting": "DNA viruses; HEL cell cultures", "result": "clearly less, or not antivirally active"}]}, {"molecule": "CC(C)(C)C(=O)OCOP(=O)(C/C=C/Cn1cc(Br)c(=O)[nH]c1=O)OCOC(=O)C(C)(C)C", "note": "[Ie1, (E)-N^1-(4′-bis(POM)-phosphinyl-2′-butenyl)-5-bromo-uracil]", "values": [{"measurement": "inhibitory activity against VZV", "setting": "VZV strain OKA", "result": "most inhibitory"}, {"measurement": "antiviral activity against mutant TK-deficient VZV TK", "setting": "[1]", "result": "pronounced antiviral activity"}, {"measurement": "antiviral activity against mutant TK-deficient HSV-1 TK^−", "setting": "[2]", "result": "pronounced antiviral activity"}, {"measurement": "inhibitory activity against HSV-1", "setting": "[3]", "result": "most inhibitory"}, {"measurement": "inhibitory activity against HSV-2", "setting": "HSV-2 (G)", "result": "most inhibitory"}]}, {"molecule": "CC(C)(C)C(=O)OCOP(=O)(C/C=C\\Cn1cc(Br)c(=O)[nH]c1=O)OCOC(=O)C(C)(C)C", "note": "[Ie2, (Z)—N^1-(4′-bis(POM)-phosphinyl-2′-butenyl)-5-bromo-uracil]", "values": [{"measurement": "antiviral activity, [Z] versus corresponding [E] isomers", "setting": "DNA viruses", "result": "clearly less, or not antivirally active"}]}, {"molecule": "Nc1ncnc2c1ncn2CCOCP(=O)(O)OP(=O)(O)OP(=O)(O)O", "note": "[PMEA-PP]", "values": [{"measurement": "half-life in the body", "setting": "[4]", "result": "> 15", "unit": "H"}]}, {"molecule": "Nc1ccn(C[C@@H](CO)OCP(=O)(O)O)c(=O)n1", "note": "[cidofovir]", "values": [{"measurement": "substrate for hUCK", "setting": "UMP-CMP kinase (hUCK)", "result": "not a substrate for hUCK"}]}]}
